Results on 49 compounds are retold here after US12502380B2, “MrgprX2 antagonists for the treatment of inflammatory disorders” (Dermira, Inc., priority 2019, dated 2025).

This assay concerns the target T1, Human MrgprX2 (Homo sapiens, UniProt Q96LB1).
T1 construct: expressed in transfected cells
T1 sequence (Q96LB1 1-330): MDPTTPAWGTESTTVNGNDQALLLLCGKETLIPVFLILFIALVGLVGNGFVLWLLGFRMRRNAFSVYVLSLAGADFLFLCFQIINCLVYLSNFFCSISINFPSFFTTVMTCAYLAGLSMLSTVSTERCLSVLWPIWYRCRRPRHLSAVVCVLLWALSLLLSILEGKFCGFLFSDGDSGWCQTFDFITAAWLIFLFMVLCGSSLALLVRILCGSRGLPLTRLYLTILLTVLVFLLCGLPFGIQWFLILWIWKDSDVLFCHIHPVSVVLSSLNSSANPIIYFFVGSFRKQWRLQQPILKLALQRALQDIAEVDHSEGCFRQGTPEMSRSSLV
Nature of the assay: Human MrgprX2 antagonist FLIPR intracellular calcium mobilization assay. It is filed as cell-based. Particulars: antagonist activity, recombinant hMrgpMRGPRX2 expressing cells, read-out: Human MrgprX2 Antagonist pIC50 (converted). A digest of the protocol: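 Antagonist activity was read as inhibition of intracellular calcium mobilization (FLIPR) in recombinant cells expressing human MrgprX2. Potency was also checked in LAD-2 human mast cells with endogenous receptor, and orthologue activity in cells expressing mouse MrgprB2, mouse MrgprA1, and gerbil, Chinese hamster and cynomolgus orthologues.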
For orientation: A change in cytosolic calcium serves as a functional read-out for many receptors and channels.

For `CC(C)NC(=O)c1nc(F)c(Cc2ccc(F)cc2)s1` [Compound E220, 4-fluoro-5-[(4-fluorophenyl)methyl]-N-isopropyl-thiazole-2-carboxamide], the IC50 was 6310 nM.
In the case of `CCN(C[C@@H](C)O)C(=O)Nc1ncc(Oc2ccc(C#N)cc2)s1` [Compound E211] it was 398 nM; in that of `CCN(C[C@H](C)O)C(=O)Nc1nc(C#N)c(Oc2ccc(F)cc2)s1` [Compound E207], 1000 nM; in that of `CC1(C(=O)Nc2ncc(Oc3ccc(F)cc3)s2)CCOCC1` [Compound E077], 39.8 nM.
With `Cc1nc(NC(=O)C(C)C)sc1Cc1ccccc1` [Compound E040], the IC50 was 631 nM.
In the case of `O=C(Nc1ncc(Cc2cccc(F)c2)s1)N1CCC[C@@H]1CO` [Compound E121], the IC50 is 39.8 nM.
As for `Cc1cncc(Oc2cnc(NC(=O)N(C)C[C@H](C)O)s2)c1` [Compound E177], the IC50 is 1580 nM.
As for `C[C@H](O)CN(C)C(=O)Nc1ncc(Cc2cccc(C#N)c2)s1` [Compound E144], the IC50 is 1580 nM.
For `CC(C)C(=O)Nc1ncc(Cc2cccc(C(F)(F)F)c2)s1` [Compound E002], the IC50 is 7940 nM.
The figure for `N#CC1(C(=O)Nc2ncc(Cc3ccccc3F)s2)CCOCC1` [Compound E028] is 6310 nM.
The figure for `C[C@H](O)CN(C)C(=O)Nc1ncc(Cc2ccc(F)c(F)c2)s1` [Compound E135] is 15.8 nM; for `C[C@H](O)CN(C)C(=O)Nc1ncc(Cc2cccc(F)c2F)s1` [Compound E137] it is 10 nM; for `CC(C)C(=O)Nc1ncc(Oc2cccc(F)c2)s1` [Compound E076] it is 1.26 nM.
In the case of `CC(=O)N1CCC(C)(C(=O)Nc2ncc(Cc3ccccc3F)s2)CC1` [Compound E059, 1-acetyl-N-[5-[(2-fluorophenyl)methyl]thiazol-2-yl]-4-methyl-piperidine-4-carboxamide] it was 3160 nM; in that of `CCN(C[C@H](C)O)C(=O)Nc1ncc(Oc2ccnc(C#N)c2)s1` [Compound E181], 2510 nM; in that of `O=C(Nc1ncc(Cc2cccc(F)c2)s1)C1(C(F)(F)F)CC1` [Compound E027], 100 nM.
As for `N#Cc1ccc(Oc2cnc(NC(=O)[C@H]3CCCN3S(N)(=O)=O)s2)cc1` [Compound E091, (2R)—N-[5-(4-cyanophenoxy)thiazol-2-yl]-1-sulfamoyl-pyrrolidine-2-carboxamide], the IC50 was 1580 nM.
In the case of `CC1(C(=O)Nc2ncc(Cc3cccc(Cl)c3)s2)CCOC1` (stereo not shown) [Compound E033, N-[5-[(3-chlorophenyl)methyl]thiazol-2-yl]-3-methyl-tetrahydrofuran-3-carboxamide] it was 79.4 nM.
In the case of `CCN(C[C@H](C)O)C(=O)Nc1ncc(Cc2cccc(Cl)c2)s1` [Compound E098, 3-[5-[(3-chlorophenyl)methyl]thiazol-2-yl]-1-ethyl-1-[(2S)-2-hydroxypropyl]urea], the IC50 is 3.16 nM.
In the case of `CC1(C(=O)Nc2ncc(Cc3cccc(F)c3)s2)CCOC1` (stereo not shown) [Compound E015, N-[5-[(3-fluorophenyl)methyl]thiazol-2-yl]-3-methyl-tetrahydrofuran-3-carboxamide] it was 126 nM; in that of `CCN(C[C@@H](C)O)C(=O)Nc1ncc(Oc2cc(F)cc(C#N)c2)s1` [Compound E210], 2.51 nM.
The figure for `CCN(C[C@H](C)O)C(=O)Nc1ncc(Oc2ccc(F)c(C#N)c2)s1` [Compound E184] is 5.01 nM.
In the case of `CC1(C(=O)Nc2ncc(Cc3ccccc3F)s2)CCOCC1` [Compound E004] it was 398 nM.
With `CCN(C[C@H](C)O)C(=O)Nc1ncc(Oc2ccc(F)cc2C#N)s1` [Compound E191], the IC50 is 794 nM.
`C[C@H](O)CN(C)C(=O)Nc1ncc(Oc2ccc(C#N)c(F)c2)s1` [Compound E164]: the IC50 is 3.16 nM.
Take `CN(CCO)C(=O)Nc1ncc(Oc2ccc(F)cc2)s1` [Compound E205]: the IC50 was 251 nM.
The figure for `C[C@H](O)CN(C)C(=O)Nc1ncc(Cc2cc(F)cc(F)c2)s1` [Compound E134] is 1.58 nM.
With `C[C@H](O)CN(C)C(=O)Nc1ncc(Oc2ccccc2)s1` [Compound E149], the IC50 is 2 nM.
For the compound `CC(C)(C(=O)Nc1ncc(Cc2ccccc2F)s1)N1CCOCC1` [Compound E003], the IC50 is 39.8 nM.
Regarding `CC(C)C(=O)Nc1ncc(Cc2ccc(F)c(F)c2)s1` [Compound E043], the IC50 is 7.94 nM.
With `CC(C)(C#N)C(=O)Nc1ncc(Cc2cccc(Cl)c2)s1` [Compound E034], the IC50 was 158 nM.
In the case of `CCN(C[C@H](C)O)C(=O)Nc1ncc(Oc2ccc(C#N)nc2)s1` [Compound E212] it was 158 nM; in that of `CC(O)(C(=O)Nc1ncc(Cc2cccc(F)c2)s1)C(F)(F)F` (stereo not shown) [Compound E025], 200 nM.
The figure for `CC(C)C(=O)Nc1csc(C(=O)NCc2ccccc2)c1` [Compound E223, N-benzyl-4-(2-methylpropanoylamino)thiophene-2-carboxamide] is 7940 nM; for `CCN(C[C@H](C)O)C(=O)Nc1ncc(Oc2cncnc2)s1` [Compound E201] it is 2510 nM; for `C[C@@H](O)CN(C)C(=O)Nc1ncc(Cc2cc(F)cc(F)c2)s1` [Compound E133] it is 6.31 nM.
The figure for `CC(=O)N1CCC[C@@H]1C(=O)Nc1ncc(Cc2cccc(F)c2)s1` [Compound E055, (2R)-1-acetyl-N-[5-[(3-fluorophenyl)methyl]thiazol-2-yl]pyrrolidine-2-carboxamide] is 3980 nM; for `C[C@H](O)CN(C)C(=O)Nc1ncc(Oc2ccc(F)cc2C#N)s1` [Compound E192] it is 3160 nM.
As for `CC[C@H](C(=O)Nc1ncc(Cc2cccc(F)c2)s1)N(C)S(N)(=O)=O` [Compound E069], the IC50 is 1580 nM.
For the compound `CN(C)C(C)(C)C(=O)Nc1ncc(Cc2ccccc2F)s1` [Compound E011], the IC50 was 501 nM.
In the case of `NS(=O)(=O)N1CCC[C@H]1C(=O)Nc1ncc(Cc2cccc(F)c2)s1` [Compound E062] it was 3980 nM; in that of `C[C@]1(C(=O)Nc2ncc(Cc3cc(F)cc(F)c3)s2)CCOC1` (single isomer, unassigned) [Compound E053, N-[5-[(3,5-difluorophenyl)methyl]thiazol-2-yl]-3-methyl-tetrahydrofuran-3-carboxamide], 7.94 nM; in that of `C[C@@]1(C(=O)Nc2ncc(Cc3cccc(F)c3)s2)CCOC1` (single isomer, unassigned) [Compound E048, N-[5-[(3-fluorophenyl)methyl]thiazol-2-yl]-3-methyl-tetrahydrofuran-3-carboxamide], 126 nM.
In the case of `CCN(C[C@H](C)O)C(=O)Nc1ncc(Oc2cncc(C(F)(F)F)c2)s1` [Compound E180] it was 251 nM.
For `C[C@H](O)CN(C)C(=O)Nc1ncc(Oc2ccccc2F)s1` [Compound E168], the IC50 is 3.98 nM.
Turning to `CC1(C(=O)Nc2ncc(Cc3cccc(Cl)c3)s2)CCOCC1` [Compound E023], the IC50 was 126 nM.
In the case of `CCN(C[C@H](C)O)C(=O)Nc1ncc(Oc2ccc(F)cc2)s1` [Compound E154] it was 0.631 nM.
With `CC(C)C(=O)Nc1ncc(Oc2ccccc2F)s1` [Compound E075], the IC50 was 31.6 nM.
With `C[C@H](O)CN(C)C(=O)Nc1ncc(Oc2cccc(F)c2C#N)s1` [Compound E200], the IC50 was 1580 nM.
